Earlier results on one substance are cited in US11866384B2, “Compositions and their use in agricultural applications” (SYNSUS PRIVATE LABEL PARTNERS, LLC, priority 2018, dated 2024).

With dicyandiamide, the solubility in water result is given as “about 41 grams per liter”.
